Measurements published in patent publication US20230118497A1, “PYRAZOLE-CONTAINING POLYCYCLIC DERIVATIVE INHIBITOR, PREPARATION METHOD THEREFOR AND APPLICATION THEREOF” (Shanghai Hansoh Biomedical Co., Ltd., priority 2019, published 2023).
pIC50: −log10 of the molar value.

What was measured:
[1] = target: T1, 1321N1-hP2X3 receptor (Homo sapiens, UniProt P56373); assay: Calcium ion mobility (FLIPR) in cells stably expressing 1321N1-hP2X3 receptors; assay type: cell-based; conditions: calcium signal, agonist at EC80
T1 construct: host or cells: 1321N1
T1 sequence (P56373 1-397): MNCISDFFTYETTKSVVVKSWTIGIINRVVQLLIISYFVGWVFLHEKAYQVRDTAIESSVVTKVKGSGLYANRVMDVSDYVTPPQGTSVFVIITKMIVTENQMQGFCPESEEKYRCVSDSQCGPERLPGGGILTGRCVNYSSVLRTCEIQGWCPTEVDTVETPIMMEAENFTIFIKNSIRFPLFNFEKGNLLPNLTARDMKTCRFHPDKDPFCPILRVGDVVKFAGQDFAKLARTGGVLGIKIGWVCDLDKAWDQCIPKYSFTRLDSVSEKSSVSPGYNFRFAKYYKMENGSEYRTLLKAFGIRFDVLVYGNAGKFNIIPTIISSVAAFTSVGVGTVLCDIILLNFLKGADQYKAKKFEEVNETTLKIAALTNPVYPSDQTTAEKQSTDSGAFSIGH
Method: Test Example 1. Determination of the Effect of the Compounds of the Present Invention on Calcium Ion Mobility in Cells Stably Expressing 1321N1-hP2X3 Receptors
To determine the inhibitory activity of the compounds on 1321N1-hP2X3 receptor.
Stably transfected cell line: 1321N1-hP2X3 (supplied by Shanghai ChemPartner Chemical Research Co., Ltd.).
(§1) Assay buffer: 1*HBSS+20 mM HEPES;
Cell culture medium: DMEM+10% FBS+75 µg/mL Hygromycin B+300 µg/mL G418;
(§2) Plating medium: DMEM+10% DPBS;
(§3) 0.5*Dye: 10*Dye stock+1.25 Probenecid+1*assay buffer+0.5 U/mL ATP hydrolytic enzyme;
(§4) 2. The cells were cultured to 70%-90% confluency in the cell culture medium at 37° C., 5% CO2. The medium was discarded, and the cells were added with 2 mL of Versene, and the cells were placed in an incubator at 37° C. for 2 to 5 min. The cells were collected by addition of 10 mL of plating medium and counted. The cells were seeded to the 384-well assay plate by addition of 50 μL solution (a density of 1×10^4 cells/well) to each well, and incubated for 16 to 24 hours (at least overnight).
(§5) 3. The medium was discarded, and 30 μL of 1× dye was added. The cells were incubated at 37° C. in the dark for 60 min.
(§6) 4. The compound powder was dissolved in DMSO to obtain a 20 mM stock solution. 180× compound with required concentration was formulated, and diluted in gradient for concentration points.
(§7) 5. Preparation of compound plate: 500 nL of 180× compound was transferred to the compound plate (source plate for FLIPR) using ECHO. 30 μL of assay buffer was added to each well, and the plate was shaken gently for 20 to 40 minutes.
(§8) 6. Determination: 15 μL of 3× compound was taken from each well and added to the cell plate. The samples were added by FLIPR instrument, and the calcium signals were detected. After 15 minutes, 22.5 μL of 3× agonist (EC80 concentration) was added to each well and the calcium signals were detected.
(§9) The calcium signal values were determined by FLIPR. The ratio of the 340/510 nm wavelength signals to 380/510 nm wavelength signals was used as the calculated results for each sampling time point in the experiment. The calculation of maximum minus minimum was derived from the ratio signal curve.
(§10) The percent inhibition rate and ten-point concentration data were fitted to the parametric nonlinear logistic equation by using GraphPad prism to calculate the IC50 values of the compounds.

[2] = target: T2, 1321N1-hP2X2/3 receptor (Homo sapiens, UniProt P56373+Q9UBL9); assay: Calcium ion mobility (FLIPR) in cells stably expressing 1321N1-hP2X2/3 receptors; assay type: cell-based; conditions: calcium signal, agonist at EC80
T2 construct: host or cells: 1321N1
T2 sequence (P56373 1-397): T1 sequence (P56373 1-397)
T2 sequence (Q9UBL9 1-471): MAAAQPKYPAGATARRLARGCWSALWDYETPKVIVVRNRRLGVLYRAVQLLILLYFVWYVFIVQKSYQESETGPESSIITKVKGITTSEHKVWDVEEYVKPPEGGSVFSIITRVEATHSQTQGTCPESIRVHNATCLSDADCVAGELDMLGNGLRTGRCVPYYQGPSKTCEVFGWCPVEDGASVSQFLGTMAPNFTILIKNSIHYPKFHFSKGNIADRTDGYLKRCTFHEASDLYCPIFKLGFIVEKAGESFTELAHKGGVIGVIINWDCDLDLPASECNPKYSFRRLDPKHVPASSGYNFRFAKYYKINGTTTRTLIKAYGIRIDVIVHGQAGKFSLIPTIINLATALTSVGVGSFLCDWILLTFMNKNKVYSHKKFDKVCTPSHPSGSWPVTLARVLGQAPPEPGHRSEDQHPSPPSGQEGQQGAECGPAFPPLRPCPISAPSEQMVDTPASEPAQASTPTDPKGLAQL
Method: Test Example 2. Determination of the Effect of the Compounds of the Present Invention on Calcium Ion Mobility in Cells Stably Expressing 1321N1-hP2X2/3 Receptors
To determine the inhibitory activity of the compounds on 1321N1-hP2X2/3 receptor.
Stably transfected cell line: 1321N1-hP2X2/3 (supplied by Shanghai ChemPartner Chemical Research Co., Ltd.).
as §1
Cell culture medium: DMEM+10% FBS+75 μg/mL Hygromycin B+150 μg/mL G418;
as §2, §3, §4, §5, §6, §7, §8, §9, §10

[3] = Plasma protein binding rate (dog); assay type: in vitro ADME; conditions: 37° C. 6 h
Method: Test Example 6. Assay of Plasma Protein Binding Rate
The objective of the experiment is to determine the plasma protein binding of the compounds of the Examples in plasma.
The compound of the Example was formulated into 1 mM solution A with DMSO;
The solution A was added to the plasma solution to obtain 5 μM solution B;
1) 200 μL of solution B was added to the inside of the membrane;
2) […] of PBS was added to the outside of the membrane;
3) Incubation in a water bath at 37° C. for 6 h;
4) The sample was diluted and analyzed by mass spectrometry.

| Compound | pIC50 [1] | pIC50 [2] | fraction unbound at 6 h, 5 μM [3] |
| --- | --- | --- | --- |
| N#Cc1cc2n(CC(=O)Nc3ccc(F)cn3)c(=O)c3ccc(C(F)(F)F)nc3n2n1 [Example 68, 2-(2-Cyano-5-oxo-8-(trifluoromethyl)pyrazolo[1,5-a]pyrido[3,2-e]pyrimidin-4(5H)-yl)-N-(5-fluoropyridin-2-yl)acetamide] | 7.49 | 5.25 | 0.084 |
| N#Cc1cnn2c3nc(C(F)(F)F)ccc3c(=O)n(CC(=O)Nc3ccc(F)cn3)c12 [Example 80, 2-(3-Cyano-5-oxo-8-(trifluoromethyl)pyrazolo[1,5-a]pyrido[3,2-e]pyrimidin-4(5H)-yl)-N-(5-fluoropyridin-2-yl)acetamide] | 7.19 | 5.52 | 0.135 |
| O=C(Cn1c(=O)c2ccc(C(F)(F)F)nc2n2nc(Br)cc12)Nc1ccc(F)cn1 [Example 61-A, 2-(2-bromo-5-oxo-8-(trifluoromethyl)pyrazolo[1,5-a]pyrido[3,2-e]pyrimidin-4(5H)-yl)-N-(5-fluoropyridin-2-yl)acetamide] | 7.12 | 5.20 | 0.037 |
| CCc1cc2n(CC(=O)Nc3ccc(F)cn3)c(=O)c3ccc(C(F)(F)F)nc3n2n1 [Example 34, 2-(2-Ethyl-5-oxo-8-(trifluoromethyl)pyrazolo[1,5-a]pyrido[3,2-e]pyrimidin-4(5H)-yl)-N-(5-fluoropyridin-2-yl)acetamide] | 7.20 | 4.60 | 0.032 |
| O=C(Cn1c(=O)c2ccc(C(F)(F)F)nc2n2nccc12)Nc1ccc(F)cn1 [Example 78, N-(5-Fluoropyridin-2-yl)-2-(5-oxo-8-(trifluoromethyl)pyrazolo[1,5-a]pyrido[3,2-e]pyrimidin-4(5H)-yl)acetamide] | 7.31 | 5.34 | 0.147 |
